Laboratory results as given in PubChem BioAssay AID1963978 (Molecular Pharmacology Branch, DTP, NCI, 2024).

System: 616215-338-R-J1-PDC spheroids with HUVEC/MSC, viability
Test: Anticancer human tumor 616215-338-R-J1-PDC patient-derived colon adenocarcinoma cell line growth inhibition [PI3K]
Details: for viability, T/C: stronger effect = lower value
Summary of the method: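 Targeted small molecules plus PI3K inhibitors, half-log dose series from Cmax (default top 10 microM), were applied to heterotypic spheroids of cancer cells with HUVEC and MSCs. Viability indicated growth inhibition.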

[1] = curve of first compound, second compound 0.00316 µM
[2] = curve of first compound, second compound 0.01 µM
[3] = curve of first compound, second compound 0.0316 µM
[4] = curve of first compound, second compound 0.1 µM
[5] = curve of first compound, second compound 0.316 µM
[6] = curve of first compound, second compound 1 µM
[7] = second compound 0.00316 µM, first compound 0.0316 µM
[8] = second compound 0.00316 µM, first compound 0.1 µM
[9] = second compound 0.01 µM, first compound 0.0316 µM
[10] = second compound 0.01 µM, first compound 0.1 µM
[11] = second compound 0.0316 µM, first compound 0.0316 µM
[12] = second compound 0.0316 µM, first compound 0.1 µM
[13] = second compound 0.1 µM, first compound 0.0316 µM
[14] = second compound 0.1 µM, first compound 0.1 µM
[15] = second compound 0.316 µM, first compound 0.0316 µM
[16] = second compound 0.316 µM, first compound 0.1 µM
[17] = second compound 1 µM, first compound 0.0316 µM
[18] = second compound 1 µM, first compound 0.1 µM
[19] = second compound 0.0316 µM, first compound 0.316 µM
[20] = second compound 0.0316 µM, first compound 1 µM
[21] = second compound 0.0316 µM, first compound 3.16 µM
[22] = second compound 0.0316 µM, first compound 10 µM
[23] = second compound 0.1 µM, first compound 0.316 µM
[24] = second compound 0.1 µM, first compound 1 µM
[25] = second compound 0.1 µM, first compound 3.16 µM
[26] = second compound 0.1 µM, first compound 10 µM
[27] = second compound 0.316 µM, first compound 0.316 µM
[28] = second compound 0.316 µM, first compound 1 µM
[29] = second compound 0.316 µM, first compound 3.16 µM
[30] = second compound 0.316 µM, first compound 10 µM
[31] = second compound 1 µM, first compound 0.316 µM
[32] = second compound 1 µM, first compound 1 µM
[33] = second compound 1 µM, first compound 3.16 µM
[34] = second compound 1 µM, first compound 10 µM
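Further: spheroids exposed to agents for seven days before the viability read.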

In the case of `CC(C)n1nc(-c2ccc3oc(N)nc3c2)c2c(N)ncnc21` + COc1c(OCCCN2CCOCC2)ccc2c3n(c(=NC(=O)c4cnc(N)nc4)nc12)CCN3, the IC50 [1] is reported as over 100 nM, the IC50 [2] is reported as over 100 nM and the IC50 [3] is reported as 80.3 nM. For the same compound, the IC50 [4] was 26.2 nM, the IC50 [5] was under 0.316 nM and the IC50 [6] was under 0.316 nM. The viability, T/C (second compound 0.00316 µM, first compound 0.000316 µM) was 104%, the viability, T/C (second compound 0.00316 µM, first compound 0.001 µM) was 109% and the viability, T/C (second compound 0.00316 µM, first compound 0.00316 µM) was 97.4%. It also gave a viability, T/C (second compound 0.00316 µM, first compound 0.01 µM) of 105%, a viability, T/C [7] of 116% and a viability, T/C [8] of 65.6%. The viability, T/C (second compound 0.01 µM, first compound 0.000316 µM) was 104%, the viability, T/C (second compound 0.01 µM, first compound 0.001 µM) was 100% and the viability, T/C (second compound 0.01 µM, first compound 0.00316 µM) was 103%. It also gave a viability, T/C (second compound 0.01 µM, first compound 0.01 µM) of 108%, a viability, T/C [9] of 122% and a viability, T/C [10] of 67.2%. The viability, T/C (second compound 0.0316 µM, first compound 0.000316 µM) was 106%, the viability, T/C (second compound 0.0316 µM, first compound 0.001 µM) was 99.2% and the viability, T/C (second compound 0.0316 µM, first compound 0.00316 µM) was 117%. It also gave a viability, T/C (second compound 0.0316 µM, first compound 0.01 µM) of 117%, a viability, T/C [11] of 97.3% and a viability, T/C [12] of 39%. It also gave a viability, T/C (second compound 0.1 µM, first compound 0.000316 µM) of 96.2%, a viability, T/C (second compound 0.1 µM, first compound 0.001 µM) of 102% and a viability, T/C (second compound 0.1 µM, first compound 0.00316 µM) of 88.9%. The viability, T/C (second compound 0.1 µM, first compound 0.01 µM) was 68.7%, the viability, T/C [13] was 47.7% and the viability, T/C [14] was 30.1%. The viability, T/C (second compound 0.316 µM, first compound 0.000316 µM) was 37.9%, the viability, T/C (second compound 0.316 µM, first compound 0.001 µM) was 42.1% and the viability, T/C (second compound 0.316 µM, first compound 0.00316 µM) was 34.9%. The viability, T/C (second compound 0.316 µM, first compound 0.01 µM) was 45.2%, the viability, T/C [15] was 35.5% and the viability, T/C [16] was 22.1%. It also gave a viability, T/C (second compound 1 µM, first compound 0.000316 µM) of 24.3%, a viability, T/C (second compound 1 µM, first compound 0.001 µM) of 29.1% and a viability, T/C (second compound 1 µM, first compound 0.00316 µM) of 25.1%. For the same compound, the viability, T/C (second compound 1 µM, first compound 0.01 µM) was 27.8%, the viability, T/C [17] was 30.1% and the viability, T/C [18] was 13.2%.
Work on `Cn1nccc1Nc1nccc(-c2ccn(C(CO)c3ccc(Cl)c(F)c3)c(=O)c2)n1` (configuration not stated) + CC(Nc1ccc2c(c1)OCCn1cc(N3C(=O)OCC3C(F)F)nc1-2)C(N)=O yielded an IC50 [1] of 4610 nM, an IC50 [2] of 3920 nM and an IC50 [3] of 2320 nM. For the same compound, the IC50 [4] was 1150 nM, the IC50 [5] was 986 nM and the IC50 [6] was 1240 nM. The viability, T/C [7] was 94.1%, the viability, T/C [8] was 87% and the viability, T/C (second compound 0.00316 µM, first compound 0.316 µM) was 74.5%. It also gave a viability, T/C (second compound 0.00316 µM, first compound 1 µM) of 71.3%, a viability, T/C (second compound 0.00316 µM, first compound 3.16 µM) of 53.8% and a viability, T/C (second compound 0.00316 µM, first compound 10 µM) of 40.1%. The viability, T/C [9] was 100%, the viability, T/C [10] was 97.6% and the viability, T/C (second compound 0.01 µM, first compound 0.316 µM) was 81.8%. The viability, T/C (second compound 0.01 µM, first compound 1 µM) was 71.1%, the viability, T/C (second compound 0.01 µM, first compound 3.16 µM) was 50.7% and the viability, T/C (second compound 0.01 µM, first compound 10 µM) was 41%. For the same compound, the viability, T/C [11] was 86.8%, the viability, T/C [12] was 103% and the viability, T/C [19] was 87.7%. For the same compound, the viability, T/C [20] was 58.3%, the viability, T/C [21] was 54.2% and the viability, T/C [22] was 38.4%. It also gave a viability, T/C [13] of 96.8%, a viability, T/C [14] of 91.6% and a viability, T/C [23] of 78.1%. For the same compound, the viability, T/C [24] was 50.8%, the viability, T/C [25] was 38.8% and the viability, T/C [26] was 33%. For the same compound, the viability, T/C [15] was 92.5%, the viability, T/C [16] was 100% and the viability, T/C [27] was 66.8%. It also gave a viability, T/C [28] of 52.6%, a viability, T/C [29] of 37.4% and a viability, T/C [30] of 29.1%. For the same compound, the viability, T/C [17] was 96.8%, the viability, T/C [18] was 93.7% and the viability, T/C [31] was 72.5%. The viability, T/C [32] was 44.9%, the viability, T/C [33] was 40.5% and the viability, T/C [34] was 6.88%.
For `Cn1cnc2c(F)c(Nc3ccc(Br)cc3Cl)c(C(=O)NOCCO)cc21`, the viability, T/C (compound 0.00949 µM) was 96.1% [middle of 4 runs], the viability, T/C (compound 0.03 µM) was 94.7% [middle of 4 runs] and the viability, T/C (compound 0.0949 µM) was 92.1% [middle of 4 runs]. The viability, T/C (compound 0.3 µM) was 80.6% [middle of 4 runs], the viability, T/C (compound 0.949 µM) was 58.5% [middle of 4 runs] and the viability, T/C (compound 3 µM) was 45.3% [middle of 4 runs].
For `CC(Nc1ncnc2nc[nH]c12)c1cc2cccc(Cl)c2c(=O)n1-c1ccccc1` (configuration not stated), the viability, T/C (compound 0.0316 µM) was 103% [middle of 8 runs], the viability, T/C (compound 0.1 µM) was 96.5% [middle of 8 runs] and the viability, T/C (compound 0.316 µM) was 99.3% [middle of 8 runs]. For the same compound, the viability, T/C (compound 1 µM) was 105% [middle of 8 runs], the viability, T/C (compound 3.16 µM) was 102% [middle of 8 runs] and the viability, T/C (compound 10 µM) was 105% [middle of 8 runs]. The IC50 (compound alone, run of 05/09/2023) was over 10000 nM.
In the case of `Cn1nccc1Nc1nccc(-c2ccn(C(CO)c3ccc(Cl)c(F)c3)c(=O)c2)n1` (configuration not stated), the viability, T/C (compound 0.0316 µM) is reported as 96.3% [middle of 4 runs], the viability, T/C (compound 0.1 µM) is reported as 101% [middle of 4 runs] and the viability, T/C (compound 0.316 µM) is reported as 90.4% [middle of 4 runs]. For the same compound, the viability, T/C (compound 1 µM) was 66.4% [middle of 4 runs], the viability, T/C (compound 3.16 µM) was 56.4% [middle of 4 runs] and the viability, T/C (compound 10 µM) was 40.1% [middle of 4 runs]. The IC50 (curve of compound) was 3.91 µM [middle of 4 runs].
`CC1(C)CCC(Nc2ncc(C(F)(F)F)c(-c3c[nH]c4c(P(C)(C)=O)c(C#N)ccc34)n2)CN1` (configuration not stated) + Cc1nc(NC(=O)N2CCCC2C(N)=O)sc1-c1ccnc(C(C)(C)C(F)(F)F)c1 was tested, and the IC50 [3] was 3650 nM, the IC50 [4] was 3770 nM and the IC50 [5] was 3660 nM. The IC50 [6] was 3350 nM, the IC50 (curve of first compound, second compound 3.16 µM) was 1100 nM and the IC50 (curve of first compound, second compound 10 µM) was 185 nM. For the same compound, the viability, T/C [11] was 50.7%, the viability, T/C [12] was 54.1% and the viability, T/C [19] was 54.7%. For the same compound, the viability, T/C [20] was 56.1%, the viability, T/C [21] was 69.7% and the viability, T/C [22] was 0.38%. For the same compound, the viability, T/C [13] was 64.5%, the viability, T/C [14] was 52% and the viability, T/C [23] was 59.5%. It also gave a viability, T/C [24] of 60%, a viability, T/C [25] of 59.7% and a viability, T/C [26] of 0.38%. The viability, T/C [15] was 51.8%, the viability, T/C [16] was 57.8% and the viability, T/C [27] was 59.7%. It also gave a viability, T/C [28] of 52.8%, a viability, T/C [29] of 63.6% and a viability, T/C [30] of 0.32%. It also gave a viability, T/C [17] of 61.9%, a viability, T/C [18] of 45.8% and a viability, T/C [31] of 53.7%. The viability, T/C [32] was 55.8%, the viability, T/C [33] was 52.5% and the viability, T/C [34] was 0.18%. The viability, T/C (second compound 3.16 µM, first compound 0.0316 µM) was 53.5%, the viability, T/C (second compound 3.16 µM, first compound 0.1 µM) was 47.5% and the viability, T/C (second compound 3.16 µM, first compound 0.316 µM) was 48.3%. The viability, T/C (second compound 3.16 µM, first compound 1 µM) was 57.6%, the viability, T/C (second compound 3.16 µM, first compound 3.16 µM) was 31.2% and the viability, T/C (second compound 3.16 µM, first compound 10 µM) was 0.39%. The viability, T/C (second compound 10 µM, first compound 0.0316 µM) was 61.6%, the viability, T/C (second compound 10 µM, first compound 0.1 µM) was 51.4% and the viability, T/C (second compound 10 µM, first compound 0.316 µM) was 46.2%. It also gave a viability, T/C (second compound 10 µM, first compound 1 µM) of 37.1%, a viability, T/C (second compound 10 µM, first compound 3.16 µM) of 20.2% and a viability, T/C (second compound 10 µM, first compound 10 µM) of 0.89%.
`CC(C)NCC(C(=O)N1CCN(c2ncnc3c2C(C)CC3O)CC1)c1ccc(Cl)cc1` (configuration not stated) was tested, and the viability, T/C (compound 0.0316 µM) was 98.8% [middle of 4 runs], the viability, T/C (compound 0.1 µM) was 94.3% [middle of 4 runs] and the viability, T/C (compound 0.316 µM) was 95.1% [middle of 4 runs]. The viability, T/C (compound 1 µM) was 102% [middle of 4 runs], the viability, T/C (compound 3.16 µM) was 77.5% [middle of 4 runs] and the IC50 (curve of compound) was 6.53 µM [middle of 4 runs].
